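All cell lines were grown in 96-well plates and treated with compound for 48 hours. At the GI50, growth is halved. At the TGI there is no net growth.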
Tests used:
Assay in all cases: NCI anticancer screen, dose series, 48 h
786-0 renal = tested on: 786-0 renal
A498 renal = tested on: A498 renal
A549 NSCLC = tested on: A549 NSCLC
ACHN renal = tested on: ACHN renal
BT-549 breast = tested on: BT-549 breast
CAKI-1 renal = tested on: CAKI-1 renal
CCRF-CEM leukemia = tested on: CCRF-CEM leukemia
COLO 205 colon = tested on: COLO 205 colon
DU-145 prostate = tested on: DU-145 prostate
EKVX NSCLC = tested on: EKVX NSCLC
HCC-2998 colon = tested on: HCC-2998 colon
HCT-116 colon = tested on: HCT-116 colon
HCT-15 colon = tested on: HCT-15 colon
HL-60(TB) leukemia = tested on: HL-60(TB) leukemia
HOP-62 NSCLC = tested on: HOP-62 NSCLC
HOP-92 NSCLC = tested on: HOP-92 NSCLC
HS 578T breast = tested on: HS 578T breast
HT29 colon = tested on: HT29 colon
IGROV1 ovarian = tested on: IGROV1 ovarian
K-562 leukemia = tested on: K-562 leukemia
KM12 colon = tested on: KM12 colon
LOX IMVI melanoma = tested on: LOX IMVI melanoma
M14 melanoma = tested on: M14 melanoma
MALME-3M melanoma = tested on: MALME-3M melanoma
MCF7 breast = tested on: MCF7 breast
MDA-MB-231 breast = tested on: MDA-MB-231 breast
MDA-MB-435 = tested on: MDA-MB-435
MDA-MB-468 breast = tested on: MDA-MB-468 breast
MOLT-4 leukemia = tested on: MOLT-4 leukemia
NCI-H226 lung = tested on: NCI-H226 lung

**Q.** How did the GI50 (786-0 renal) turn out when `COc1ccc(C(=O)/C=C/c2cc(C(F)(F)F)cc(C(F)(F)F)c2)cc1S(N)(=O)=O` was run?
**A.** Its GI50 is 1.64 µM.

**Q.** And the TGI (786-0 renal)?
**A.** The TGI was 3.32 µM.

**Q.** What about the GI50 (A498 renal) of the same compound?
**A.** The GI50 was 16.9 µM.

**Q.** And the TGI (A498 renal)?
**A.** Its TGI is 30.5 µM.

**Q.** And the GI50 (A549 NSCLC)?
**A.** Its GI50 is 1.83 µM.

**Q.** And the TGI (A549 NSCLC)?
**A.** Its TGI is 5.64 µM.

**Q.** What about the GI50 (ACHN renal) of the same compound?
**A.** The GI50 was 1.54 µM.

**Q.** What about the TGI (ACHN renal) of the same compound?
**A.** Its TGI is 2.91 µM.

**Q.** And the GI50 (BT-549 breast)?
**A.** Its GI50 is 2.27 µM.

**Q.** What about the TGI (BT-549 breast) of the same compound?
**A.** Its TGI is 3.93 µM.

**Q.** And the GI50 (CAKI-1 renal)?
**A.** Its GI50 is 1.58 µM.

**Q.** And the TGI (CAKI-1 renal)?
**A.** Its TGI is 3.36 µM.

**Q.** And the GI50 (CCRF-CEM leukemia)?
**A.** Its GI50 is 0.299 µM.

**Q.** And the TGI (CCRF-CEM leukemia)?
**A.** The TGI was greater than 100 µM.

**Q.** What about the GI50 (COLO 205 colon) of the same compound?
**A.** The GI50 was 2.02 µM.

**Q.** And the TGI (COLO 205 colon)?
**A.** The TGI was 3.94 µM.

**Q.** And the GI50 (DU-145 prostate)?
**A.** Its GI50 is 2.05 µM.

**Q.** What about the TGI (DU-145 prostate) of the same compound?
**A.** Its TGI is 4.83 µM.

**Q.** And the GI50 (EKVX NSCLC)?
**A.** The GI50 was 1.58 µM.

**Q.** And the TGI (EKVX NSCLC)?
**A.** Its TGI is 2.97 µM.

**Q.** What about the GI50 (HCC-2998 colon) of the same compound?
**A.** Its GI50 is 1.54 µM.

**Q.** And the TGI (HCC-2998 colon)?
**A.** The TGI was 2.87 µM.

**Q.** What about the GI50 (HCT-116 colon) of the same compound?
**A.** The GI50 was 0.655 µM.

**Q.** And the TGI (HCT-116 colon)?
**A.** Its TGI is 2.3 µM.

**Q.** What about the GI50 (HCT-15 colon) of the same compound?
**A.** The GI50 was 0.893 µM.

**Q.** What about the TGI (HCT-15 colon) of the same compound?
**A.** The TGI was 2.38 µM.

**Q.** And the GI50 (HL-60(TB) leukemia)?
**A.** Its GI50 is 1.75 µM.

**Q.** And the TGI (HL-60(TB) leukemia)?
**A.** Its TGI is 6.29 µM.

**Q.** What about the GI50 (HOP-62 NSCLC) of the same compound?
**A.** Its GI50 is 2.22 µM.

**Q.** What about the TGI (HOP-62 NSCLC) of the same compound?
**A.** The TGI was 4.4 µM.

**Q.** What about the GI50 (HOP-92 NSCLC) of the same compound?
**A.** Its GI50 is 1.98 µM.

**Q.** And the TGI (HOP-92 NSCLC)?
**A.** Its TGI is 5.8 µM.

**Q.** What about the GI50 (HS 578T breast) of the same compound?
**A.** Its GI50 is 2.68 µM.

**Q.** And the TGI (HS 578T breast)?
**A.** The TGI was 9.86 µM.

**Q.** And the GI50 (HT29 colon)?
**A.** The GI50 was 1.26 µM.

**Q.** And the TGI (HT29 colon)?
**A.** The TGI was 2.77 µM.

**Q.** And the GI50 (IGROV1 ovarian)?
**A.** The GI50 was 1.74 µM.

**Q.** And the TGI (IGROV1 ovarian)?
**A.** The TGI was 3.32 µM.

**Q.** And the GI50 (K-562 leukemia)?
**A.** The GI50 was 0.788 µM.

**Q.** And the TGI (K-562 leukemia)?
**A.** The TGI was greater than 100 µM.

**Q.** And the GI50 (KM12 colon)?
**A.** Its GI50 is 2.07 µM.

**Q.** And the TGI (KM12 colon)?
**A.** Its TGI is 4.92 µM.

**Q.** And the GI50 (LOX IMVI melanoma)?
**A.** The GI50 was 0.573 µM.

**Q.** What about the TGI (LOX IMVI melanoma) of the same compound?
**A.** Its TGI is 1.78 µM.

**Q.** What about the GI50 (M14 melanoma) of the same compound?
**A.** Its GI50 is 1.92 µM.

**Q.** And the TGI (M14 melanoma)?
**A.** Its TGI is 4.85 µM.

**Q.** And the GI50 (MALME-3M melanoma)?
**A.** Its GI50 is 1.81 µM.

**Q.** And the TGI (MALME-3M melanoma)?
**A.** Its TGI is 3.33 µM.

**Q.** What about the GI50 (MCF7 breast) of the same compound?
**A.** Its GI50 is 0.439 µM.

**Q.** And the TGI (MCF7 breast)?
**A.** The TGI was 1.68 µM.

**Q.** What about the GI50 (MDA-MB-231 breast) of the same compound?
**A.** Its GI50 is 1.57 µM.

**Q.** What about the TGI (MDA-MB-231 breast) of the same compound?
**A.** Its TGI is 3.11 µM.

**Q.** And the GI50 (MDA-MB-435)?
**A.** The GI50 was 1.35 µM.

**Q.** And the TGI (MDA-MB-435)?
**A.** Its TGI is 2.97 µM.

**Q.** What about the GI50 (MDA-MB-468 breast) of the same compound?
**A.** Its GI50 is 1.54 µM.

**Q.** What about the TGI (MDA-MB-468 breast) of the same compound?
**A.** Its TGI is 2.91 µM.

**Q.** And the GI50 (MOLT-4 leukemia)?
**A.** Its GI50 is 1.79 µM.

**Q.** What about the TGI (MOLT-4 leukemia) of the same compound?
**A.** Its TGI is 9.16 µM.

**Q.** What about the GI50 (NCI-H226 lung) of the same compound?
**A.** Its GI50 is 2.14 µM.

From PubChem BioAssay (NCI)
